The values below come from ChEMBL document CHEMBL2029340 (J Med Chem, 2012).

Active and inactive are the calls of the source. The rule behind the calls is not given here.

Series [1] is described as follows: Cytotoxicity against MDCK cells after 3 days by CCK-8 assay. The series is classed as cell-based, Canis lupus familiaris. The note with it: dog. For orientation: Tetrazolium assays rely on reduction of a dye to a coloured formazan, in cell work by metabolically active cells.
Series [2] concerns Influenza A virus. Description: Antiviral activity against Influenza A virus A/HK/8/68(H3N2) infected in MDCK cells assessed as inhibition of virus-induced cytopathic effects after 3 days by CCK-8 assay. The series is classed as functional, organism-based. The note with it: 72 h. A general note: Cytopathic effects are the visible damage that an infection or toxin causes in cultured cells.

Series [3] deals with Influenza A virus. Description: Antiviral activity against Influenza A virus A/Brisbane/10/2007 (H3N2) infected in MDCK cells assessed as inhibition of virus-induced cytopathic effects after 3 days by CCK-8 assay. The series is classed as functional, organism-based. The note with it: 72 h.
The subject of series [4] is Influenza A virus. Description: Antiviral activity against Influenza A virus […] infected in MDCK cells assessed as inhibition of virus-induced cytopathic effects after 3 days by CCK-8 assay. The series is classed as functional, organism-based. The note with it: 72 h.
Series [5] relates to Influenza A virus. Put plainly: Antiviral activity against Influenza A virus A/Guangzhou/2009 (H1N1) infected in MDCK cells assessed as inhibition of virus-induced cytopathic effects after 3 days by CCK-8 assay. The note with it: 72 h. The series is classed as functional, organism-based.
Series [6] has as its system Influenza A virus. Put plainly: Antiviral activity against Influenza A virus A/Weiss/43 (H1N1) infected in MDCK cells assessed as inhibition of virus-induced cytopathic effects after 3 days by CCK-8 assay. The series is classed as functional, organism-based, Influenza A virus (A/Weiss/1943(H1N1)). The note with it: 72 h.
In series [7] the test system is Influenza A virus. Description: Antiviral activity against Influenza A virus A/Guangdong/96 (H9N2) infected in MDCK cells assessed as inhibition of virus-induced cytopathic effects after 3 days by CCK-8 assay. The series is classed as functional, organism-based. The note with it: 72 h.
Series [8] relates to Influenza A virus. Put plainly: Antiviral activity against Influenza A virus A/Mal/302/54 (H1N1) infected in MDCK cells assessed as inhibition of virus-induced cytopathic effects after 3 days by CCK-8 assay. The series is classed as functional, organism-based. The following applies: 72 h.
Series [9] concerns Influenza A virus. Description: Antiviral activity against Influenza A virus A/udorn/1972 (H3N2) infected in MDCK cells assessed as inhibition of virus-induced cytopathic effects after 3 days by CCK-8 assay. The note with it: 72 h. The series is classed as functional, organism-based.
Series [10] relates to Influenza A virus. Description: Antiviral activity against Influenza A virus A/WSN/33 (H1N1) infected in MDCK cells assessed as inhibition of nucleoprotein accumulation in nucleus at 10 uM after 4 hrs by fluorescent microscopy. The series is classed as functional, organism-based. The note with it: A/WSN/1933(H1N1).

As to `Cc1nnn(-c2ccccc2OC(C)C)c1C(=O)N1CCN(c2ccc([N+](=O)[O-])cc2Cl)CC1`, in [1], the CC50 at 72 h is greater than 100 µM. Also, the IC50 in the series on Influenza A virus [2] was 16.2 µM.
For the molecule `COc1cccc(OC)c1-n1nnc(C)c1C(=O)N1CCN(c2ccc([N+](=O)[O-])cc2Cl)CC1`, in [1], the 50% cytotoxic concentration (CC50) at 72 h is greater than 100 µM. For the same molecule, the IC50 in the series with Influenza A virus [2] is 2.42 µM.
The molecule `COc1ccccc1-n1nnc(C)c1C(=O)N1CCCN(c2ccc([N+](=O)[O-])cc2Cl)CC1` returned a CC50 at 72 h in [1] greater than 100 µM. For the same molecule, the concentration for half-maximal inhibition (IC50) in the series with Influenza A virus [2] is greater than 50 µM.
In the case of `COc1ccccc1-c1ccccc1C(=O)N1CCN(c2ccc([N+](=O)[O-])cc2Cl)CC1`, the half-maximal inhibitory concentration (IC50) in the series on Influenza A virus [2] was 3.68 µM.
In [1], `Cc1onc(-c2ccccc2)c1C(=O)N1CCN(c2ccc([N+](=O)[O-])cc2Cl)CC1` [NUCLEOZIN] registered a CC50 at 72 h of 15.9 µM. The IC50 worked out at 12.4 µM with Influenza A virus [3]; 1.59 µM in the series with Influenza A virus [4]; 0.54 µM in the series with Influenza A virus [5]; 1.08 µM in the series on Influenza A virus [2]; 0.2 µM in the series on Influenza A virus [6]; 3.87 µM in the series on Influenza A virus [7]. Also, the figures for the IC50 in the series with Influenza A virus [8] and with Influenza A virus [9] were 0.52 µM and 0.34 µM, respectively.
In turn, `Cc1ccccc1-n1nnc(C)c1C(=O)N1CCN(c2ccc([N+](=O)[O-])cc2Cl)CC1` had a half-maximal cytotoxic concentration (CC50) at 72 h in series [1] greater than 100 µM. For the same molecule, the IC50 in the series with Influenza A virus [2] was determined as 4.92 µM.
`COc1ccc(-n2nnc(C)c2C(=O)N2CCN(c3ccc([N+](=O)[O-])cc3Cl)CC2)cc1`: the CC50 at 72 h in series [1] is greater than 100 µM. Further, in the series with Influenza A virus [2], the IC50 came out at 14.7 µM.
`COc1ccccc1-n1nnc(C)c1C(=O)N1CCN(c2ccccc2Cl)CC1`: the CC50 at 72 h in series [1] was greater than 100 µM. Moreover, the half-maximal inhibitory concentration (IC50) with Influenza A virus [2] is greater than 50 µM.
`NC12CC3CC(CC(C3)C1)C2` [AMANTADINE] yielded a CC50 at 72 h in series [1] greater than 100 µM. Also, the IC50 in the series with Influenza A virus [2] was 2.22 µM.
For `Cc1nnn(-c2ccccc2Cl)c1C(=O)N1CCN(c2ccc([N+](=O)[O-])cc2Cl)CC1`, in that order: greater than 100 µM and 5.65 µM.
The matching figures for `Cc1nnn(-c2ccccc2)c1C(=O)N1CCN(c2ccc([N+](=O)[O-])cc2Cl)CC1`: greater than 100 µM and 5.16 µM.
As for `Cc1[nH]nc(-c2ccccc2)c1C(=O)N1CCN(c2ccc([N+](=O)[O-])cc2Cl)CC1`, in the series on Influenza A virus [2], the half-inhibitory concentration (IC50) is 8.64 µM.
As for `COc1ccccc1-n1nnc(C)c1C(=O)N1CCN(c2ccc([N+](=O)[O-])cc2Cl)CC1`, in [1], the CC50 at 72 h was greater than 100 µM. The inhibition entry in the series with Influenza A virus [10] is “Active”. Also, the IC50 in the series with Influenza A virus [3] was greater than 50 µM; in the series with Influenza A virus [4], 1.86 µM; in the series on Influenza A virus [5] it was 0.52 µM; with Influenza A virus [2], 1.97 µM; in the series on Influenza A virus [6], 0.66 µM; in the series on Influenza A virus [7], 4.62 µM. The IC50 in the series with Influenza A virus [8] amounted to 0.9 µM; in the series on Influenza A virus [9], 1.17 µM.
Regarding `COc1ccccc1-n1nnc(C)c1C(=O)N1CCN(c2ccccc2)CC1`, the CC50 at 72 h in series [1] is greater than 100 µM. Further, the IC50 in the series with Influenza A virus [2] is greater than 50 µM.
In series [1], `Cc1nnn(-c2cccc(Cl)c2)c1C(=O)N1CCN(c2ccc([N+](=O)[O-])cc2Cl)CC1` returned a 50% cytotoxic concentration (CC50) at 72 h greater than 100 µM. Moreover, in the series on Influenza A virus [2], the IC50 came to 9.38 µM.
The matching figures for `CCOc1ccccc1-n1nnc(C)c1C(=O)N1CCN(c2ccc([N+](=O)[O-])cc2Cl)CC1`: greater than 100 µM and 8.97 µM.
The matching figures for `COc1cc([N+](=O)[O-])ccc1N1CCN(C(=O)c2c(C)nnn2-c2ccccc2OC)CC1`: greater than 100 µM and greater than 50 µM.
The matching figures for `COc1ccccc1-n1nncc1C(=O)N1CCN(c2ccc([N+](=O)[O-])cc2Cl)CC1`: greater than 100 µM and greater than 50 µM.
In turn, `COc1ccccc1-n1nnc(C)c1C(=O)N1CCN(c2ccc([N+](=O)[O-])cc2)CC1` yielded a half-maximal cytotoxic concentration (CC50) at 72 h in [1] greater than 100 µM. The IC50 in the series with Influenza A virus [2] was greater than 50 µM.
Molecule `Cc1nnn(-c2ccccc2O)c1C(=O)N1CCN(c2ccc([N+](=O)[O-])cc2Cl)CC1` came in with a CC50 at 72 h in series [1] greater than 100 µM. Moreover, the concentration for half-maximal inhibition (IC50) with Influenza A virus [2] is 7.84 µM.
For the molecule `COc1ccccc1-c1onc(C)c1C(=O)N1CCN(c2ccc([N+](=O)[O-])cc2Cl)CC1`, the concentration for half-maximal inhibition (IC50) in the series with Influenza A virus [2] amounted to 2.62 µM.
In [1], `COc1cccc(-n2nnc(C)c2C(=O)N2CCN(c3ccc([N+](=O)[O-])cc3Cl)CC2)c1` yielded a CC50 at 72 h greater than 100 µM. The IC50 with Influenza A virus [2] came out at 13.8 µM.
Regarding `Cc1[nH]nc(-c2ccccc2Cl)c1C(=O)N1CCN(c2ccc([N+](=O)[O-])cc2Cl)CC1`, the IC50 in the series on Influenza A virus [2] amounted to 2.87 µM.
In the case of `CC(=O)c1ccccc1-n1nnc(C)c1C(=O)N1CCN(c2ccc([N+](=O)[O-])cc2Cl)CC1`, in series [1], the cytotoxic concentration (CC50) at 72 h is greater than 100 µM. In the series on Influenza A virus [2], the 50% inhibitory concentration (IC50) was 14.8 µM.
In the case of `O=C(c1ccccc1-c1ccccc1)N1CCN(c2ccc([N+](=O)[O-])cc2Cl)CC1`, the IC50 in the series with Influenza A virus [2] was found to be 7.61 µM.
In series [1], `CCc1nnn(-c2ccccc2OC)c1C(=O)N1CCN(c2ccc([N+](=O)[O-])cc2Cl)CC1` showed a 50% cytotoxic concentration (CC50) at 72 h greater than 100 µM. Moreover, the half-inhibitory concentration (IC50) in the series with Influenza A virus [2] was greater than 50 µM.
With `Cc1noc(-c2ccccc2)c1C(=O)N1CCN(c2ccc([N+](=O)[O-])cc2Cl)CC1`, in the series on Influenza A virus [2], the IC50 turned out to be 6 µM.
With `Cc1nnn(-c2ccc(Cl)cc2)c1C(=O)N1CCN(c2ccc([N+](=O)[O-])cc2Cl)CC1`, the CC50 at 72 h in [1] is greater than 100 µM. Further, in the series on Influenza A virus [2], the IC50 was greater than 50 µM.

What is called CC50 is the concentration at which the toxic effect on the cells reaches its halfway point. As usually defined, the IC50 is the concentration that inhibits the measured activity by half.
